Where “and” joins values, the source holds several entries; their conditions need not be identical. Identical values can stand only once.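 96-well plates; 48 h exposure; 5 concentrations. Endpoints by linear interpolation between flanking doses. Not reached: highest tested concentration assigned. The concentration for 50% growth inhibition is given as GI50. TGI is the concentration that stops growth completely.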
What was measured:
Assay in all cases: NCI anticancer screen, dose series, 48 h
[1] = system: A498 renal
[2] = system: HCT-116 colon
[3] = system: HL-60(TB) leukemia
[4] = system: MALME-3M melanoma
[5] = system: SK-MEL-28 melanoma
[6] = system: TK-10 renal
[7] = system: UO-31 renal
[8] = system: COLO 205 colon
[9] = system: BT-549 breast

Row | SMILES | TGI [1] | TGI [2] | TGI [3] | TGI [4] | TGI [5] | TGI [6] | TGI [7] | GI50 [1] | GI50 [8] | TGI [8] | GI50 [2] | GI50 [3] | GI50 [4] | GI50 [5] | GI50 [7] | TGI [9] | GI50 [9] | GI50 [6]
1 | Cc1nc2c(n1-c1ccccc1)C(=O)c1ccccc1C2=O | > 100 µM | 73.1 µM | 45.1 µM | 34.2 µM | > 100 µM | > 100 µM | > 100 µM | – | – | – | – | – | – | – | – | – | – | –
2 | CS(=O)(=O)[O-].CS(=O)(=O)[O-].NC1CCCCC1N.[Pt+4] (centres undefined) | > 100 µM | > 100 µM | > 93.5 µM | > 100 µM | > 100 µM | – | > 100 µM | > 100 µM | 35.9 µM | > 100 µM | 37.4 µM | 33.5 µM | > 100 µM | 71.6 µM | > 96.5 µM | – | – | –
3 | O=NN1CCCS1(=O)=O | > 100 µM | > 100 µM | > 100 µM | > 100 µM | > 100 µM | > 100 µM | > 100 µM | – | – | > 100 µM | – | – | – | – | – | > 100 µM | – | –
4 | COc1ccc(NC(=O)CC(=O)N2N=C(N(c3ccccc3)c3ccccc3)CC2c2ccccc2)cc1 (centres undefined) | > 100 µM | > 100 µM | > 100 µM | – | > 100 µM | > 100 µM | > 100 µM | – | – | > 100 µM | – | – | – | – | – | – | – | –
5 | CCC1(OC(=O)CN)C(=O)OCc2c1cc1n(c2=O)Cc2cc3cc4c(cc3nc2-1)OCO4 (centres undefined) | 0.0787 µM and 0.241 µM | – | – | 1.42 µM | 13.3 µM and 11.8 µM | – | 0.151 µM and 0.4 µM | 0.0161 µM and 0.038 µM | 0.362 µM and 0.15 µM | 2.56 µM and 1.78 µM | – | < 0.01 µM | 0.287 µM | 0.195 µM and 0.294 µM | < 0.01 µM and 0.0614 µM | – | – | –
6 | Cn1c(=O)n(CC2CS2)c2ccccc21 (centres undefined) | – | > 100 µM | > 100 µM | > 100 µM | > 100 µM | > 100 µM | > 100 µM | – | – | > 100 µM | – | – | – | – | – | – | – | –
7 | C[PH+](c1nc2ccccc2nc1[PH+](C)C(C)(C)C)C(C)(C)C.C[PH+](c1nc2ccccc2nc1[PH+](C)C(C)(C)C)C(C)(C)C.[Au+].[Cl-] (centres undefined) | 0.445 µM | 0.0613 µM | 1.02 µM | 0.0811 µM | 1.5 µM | 1.13 µM | – | 0.0263 µM | 0.0198 µM | 0.0442 µM | 0.0205 µM | 0.07 µM | 0.0263 µM | 0.0538 µM | – | 0.0961 µM | 0.0324 µM | 0.0431 µM
8 | O=C(O)Cc1ccccc1CCc1ccccc1Cl | > 100 µM | > 100 µM | > 100 µM | > 100 µM | > 100 µM | > 100 µM | > 100 µM | – | – | > 100 µM | – | – | – | – | – | – | – | –
9 | CC1(C)[C@@H](OC(N)=O)C=C[C@]2(CO)[C@H]3CC[C@]4(C)[C@@H](c5ccc(=O)oc5)[C@@H](Cl)C[C@]4(O)C3=CC[C@@H]12 | 0.0557 µM | 0.0104 µM | – | 0.00524 µM | 0.0303 µM | – | 0.0134 µM | 0.0122 µM | 0.00578 µM | 0.0244 µM | < 0.0001 µM | – | 0.00239 µM | 0.0116 µM | 0.00351 µM | – | – | –
10 | O=C1/C(=C/c2ccc(O)cc2)CCC1CNc1ccccc1 (centres undefined) | 31.9 µM | 17.5 µM | 4.91 µM | 30.6 µM | 29.9 µM | 24.3 µM | 29 µM | – | – | 16.1 µM | – | – | – | – | – | 27.6 µM | – | –
11 | C[C@]12CCC(=O)C=C1CC[C@@H]1[C@@H]2[C@@H](O)C[C@@]2(C)[C@H]1CC[C@]2(O)C(=O)COC(=O)CCC1CCCC1 | > 100 µM | > 100 µM | > 100 µM | > 100 µM | > 100 µM | > 100 µM | > 100 µM | – | – | > 100 µM | – | – | – | – | – | – | – | –
12 | CCCCCCCCCCCCCCCCCCNC(=O)OCC(CNS(=O)(=O)CCC[n+]1cccc2ccccc21)COC (centres undefined) | 64.9 µM | 5.78 µM | > 100 µM | 18.7 µM | > 35.1 µM | 31.1 µM | > 75.1 µM | – | – | – | – | – | – | – | – | 5.41 µM | – | –
13 | CC1=CC[C@](C)(O)[C@@]2(C)CC[C@H]3C(=C(C)C)C(=O)C[C@]3(C)C[C@H]12 | > 50 µM | > 50 µM | 16.4 µM | – | > 50 µM | > 50 µM | > 50 µM | – | – | > 50 µM | – | – | – | – | – | > 50 µM | – | –
14 | CCN(CC)/[N+]([O-])=N/O | > 100 µM | > 100 µM | > 100 µM | – | > 100 µM | > 100 µM | > 100 µM | – | – | – | – | – | – | – | – | – | – | –
15 | Cc1ccc(/C=C2/NC(=S)SC2=O)cc1 | – | > 100 µM | > 100 µM | – | > 100 µM | 53.9 µM | 93.1 µM | – | – | > 100 µM | – | – | – | – | – | 54.2 µM | – | –
16 | COc1cc(CNC(=S)CCCCCCCCCCC(C)C)ccc1O | > 100 µM | > 100 µM | 70.2 µM | > 100 µM | > 100 µM | > 100 µM | 95.7 µM | – | – | > 100 µM | – | – | – | – | – | – | – | –
17 | O=c1c2cc(Br)ccc2ncn1COCc1ccccc1 | > 100 µM | > 100 µM | – | – | > 100 µM | > 100 µM | > 100 µM | – | – | > 100 µM | – | – | – | – | – | – | – | –
18 | O=c1c(O)cccn1C1OC(CO)C(O)C1O (centres undefined) | > 100 µM | > 100 µM | – | > 100 µM | > 100 µM | > 100 µM | > 100 µM | – | – | > 100 µM | – | – | – | – | – | – | – | –
19 | NNC(=O)Cn1ccnn1 | – | – | > 100 µM | > 100 µM | > 100 µM | > 100 µM | – | – | – | > 100 µM | – | – | – | – | – | > 100 µM | – | –
